ChEMBL document CHEMBL1201862, “PubChem BioAssay data set” (2004)
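Tested at 5 concentrations; 48 h exposure; 96-well plates; endpoints linearly interpolated, else capped at highest concentration. GI50: concentration for 50% inhibition of growth.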 Active and inactive are the calls of the source. Rule as the data show it: active = GI50 up to about 1.1 µM and inactive = higher.

Assays:
Assay in all cases: inhibition of tumour cell growth, NCI panel, 48 h
[1] = system: OVCAR-5
[2] = system: SF-539
[3] = system: U-251
[4] = system: KM12
[5] = system: COLO 205
[6] = system: MDA-MB-435
[7] = system: CAKI-1
[8] = system: A549
[9] = system: NCI-H522
[10] = system: TK-10
[11] = system: OVCAR-4
[12] = system: BT-549
[13] = system: Malme-3M
[14] = system: OVCAR-3
[15] = system: K562
[16] = system: A498
[17] = system: MCF7
[18] = system: HT-29
[19] = system: SK-OV-3

Row | Compound | GI50 [1] | GI50 [2] | GI50 [3] | GI50 [4] | GI50 [5] | GI50 [6] | GI50 [7] | GI50 [8] | GI50 [9] | GI50 [10] | GI50 [11] | GI50 [12] | GI50 [13] | GI50 [14] | GI50 [15] | GI50 [16] | GI50 [17] | GI50 [18] | GI50 [19]
1 | CN1CCN(c2n[nH]c(=O)c3c2nnn3C2CCCCC2)CC1 | > 100 µM (inactive) | > 100 µM (inactive) | > 100 µM (inactive) | > 100 µM (inactive) | > 100 µM (inactive) | > 100 µM (inactive) | > 100 µM (inactive) | > 100 µM (inactive) | > 100 µM (inactive) | > 100 µM (inactive) | > 100 µM (inactive) | > 100 µM (inactive) | > 100 µM (inactive) | > 100 µM (inactive) | > 100 µM (inactive) | > 100 µM (inactive) | > 100 µM (inactive) | > 100 µM (inactive) | –
2 | COc1ccc(-c2cc(O)c3nc4ccccc4n3c2)cc1 | – | > 100 µM (inactive) | > 100 µM (inactive) | > 100 µM (inactive) | > 100 µM (inactive) | > 100 µM (inactive) | > 100 µM (inactive) | > 100 µM (inactive) | > 100 µM (inactive) | > 100 µM (inactive) | > 100 µM (inactive) | > 100 µM (inactive) | > 100 µM (inactive) | > 100 µM (inactive) | > 100 µM (inactive) | > 100 µM (inactive) | > 100 µM (inactive) | > 100 µM (inactive) | –
3 | CC(C)=CCNc1ncnc2c1ncn2CCC(=O)OC(C)(C)C | > 100 µM (inactive) | > 100 µM (inactive) | 63.8 µM (inactive) | > 100 µM (inactive) | > 100 µM (inactive) | > 100 µM (inactive) | – | > 100 µM (inactive) | > 100 µM (inactive) | > 100 µM (inactive) | 4.81 µM (inactive) | 37.5 µM (inactive) | > 100 µM (inactive) | > 100 µM (inactive) | 18.4 µM (inactive) | > 100 µM (inactive) | > 100 µM (inactive) | > 100 µM (inactive) | 26.2 µM (inactive)
4 | O=C1CCC2(O)C3Cc4ccc(Oc5nnnn5-c5ccccc5)c5c4C2(CCN3CC2CC2)C1O5 (configuration not stated) | > 100 µM (inactive) | – | 33.4 µM (inactive) | > 100 µM (inactive) | 17.5 µM (inactive) | 19.9 µM (inactive) | > 100 µM (inactive) | > 100 µM (inactive) | 23.3 µM (inactive) | 62.5 µM (inactive) | 79.6 µM (inactive) | 96.2 µM (inactive) | 17.8 µM (inactive) | 46.7 µM (inactive) | 22.2 µM (inactive) | 29.8 µM (inactive) | 54 µM (inactive) | 26.4 µM (inactive) | > 100 µM (inactive)
5 | Cc1ccc(C(=C2Sc3ccccc3S2)C(=C2Sc3ccccc3S2)c2ccc(C)s2)s1 | > 100 µM (inactive) | – | > 100 µM (inactive) | > 100 µM (inactive) | > 100 µM (inactive) | > 100 µM (inactive) | > 100 µM (inactive) | > 100 µM (inactive) | > 100 µM (inactive) | > 100 µM (inactive) | > 100 µM (inactive) | > 100 µM (inactive) | > 100 µM (inactive) | > 100 µM (inactive) | > 100 µM (inactive) | > 100 µM (inactive) | > 100 µM (inactive) | > 100 µM (inactive) | > 100 µM (inactive)
6 | CCCC(=O)OCOC(=O)N(C)/N=N/c1ccc(C(=O)OCC)cc1 | 38 µM (inactive) | – | 25.2 µM (inactive) | 26.4 µM (inactive) | 18.7 µM (inactive) | 44.1 µM (inactive) | 43.8 µM (inactive) | 19.3 µM (inactive) | 17.3 µM (inactive) | 27.9 µM (inactive) | 39.4 µM (inactive) | 26.8 µM (inactive) | 20.1 µM (inactive) | 33.7 µM (inactive) | 47.6 µM (inactive) | 29.2 µM (inactive) | 17.8 µM (inactive) | 18.2 µM (inactive) | 41.5 µM (inactive)
7 | COc1c2c(c(OC)c3c1c(=O)c1ccccc1n3C)OCO2 | > 72.3 µM (inactive) | 5.31 µM (inactive) | 19.1 µM (inactive) | 3.25 µM (inactive) | 7.66 µM (inactive) | 2.28 µM (inactive) | 37.4 µM (inactive) | 44.5 µM (inactive) | 2.23 µM (inactive) | > 100 µM (inactive) | 24.6 µM (inactive) | 15 µM (inactive) | – | 5.51 µM (inactive) | 0.703 µM (active) | 53.3 µM (inactive) | 4.2 µM (inactive) | 17.5 µM (inactive) | 25.5 µM (inactive)
8 | FC(F)(F)c1ccc2c(c1)nc(-c1ccccc1)n2CC1CCCN2CCCCC12 (configuration not stated) | – | 16.4 µM (inactive) | 20.3 µM (inactive) | 19.2 µM (inactive) | 13 µM (inactive) | 18.3 µM (inactive) | 17.3 µM (inactive) | 24.9 µM (inactive) | 14.2 µM (inactive) | 19.6 µM (inactive) | 34.8 µM (inactive) | 16.7 µM (inactive) | 13.7 µM (inactive) | 23.5 µM (inactive) | 21.1 µM (inactive) | 22.2 µM (inactive) | 17.1 µM (inactive) | 16.1 µM (inactive) | 16.9 µM (inactive)
9 | O=C(OCC1OC(c2nn[nH]n2)C(OC(=O)c2ccccc2)C1OC(=O)c1ccccc1)c1ccccc1 (configuration not stated) | > 100 µM (inactive) | > 100 µM (inactive) | > 100 µM (inactive) | 67.6 µM (inactive) | > 100 µM (inactive) | > 100 µM (inactive) | > 100 µM (inactive) | > 100 µM (inactive) | – | > 100 µM (inactive) | > 100 µM (inactive) | > 100 µM (inactive) | > 100 µM (inactive) | > 100 µM (inactive) | 46.2 µM (inactive) | > 100 µM (inactive) | 41.2 µM (inactive) | 61.9 µM (inactive) | > 100 µM (inactive)
10 | CC(O[Si](C)(C)C(C)(C)C)[C@H](NC(=O)OCC(Cl)(Cl)Cl)C(=O)O (some centres not stated) | > 100 µM (inactive) | > 100 µM (inactive) | > 100 µM (inactive) | 56 µM (inactive) | > 100 µM (inactive) | > 100 µM (inactive) | – | > 100 µM (inactive) | 78 µM (inactive) | > 100 µM (inactive) | > 100 µM (inactive) | > 100 µM (inactive) | > 100 µM (inactive) | 79.6 µM (inactive) | > 100 µM (inactive) | > 100 µM (inactive) | > 100 µM (inactive) | > 100 µM (inactive) | > 100 µM (inactive)
11 | CCOP(=O)(/C=C\n1ccc(=O)[nH]c1=O)OCC | > 100 µM (inactive) | > 100 µM (inactive) | > 100 µM (inactive) | > 100 µM (inactive) | > 100 µM (inactive) | > 100 µM (inactive) | > 100 µM (inactive) | > 100 µM (inactive) | > 100 µM (inactive) | > 100 µM (inactive) | > 100 µM (inactive) | > 100 µM (inactive) | – | > 100 µM (inactive) | > 100 µM (inactive) | > 100 µM (inactive) | > 100 µM (inactive) | > 100 µM (inactive) | > 100 µM (inactive)
